According to PubChem BioAssay (NCI):
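Values below derive from 48-hour exposures of cells grown in 96-well plates, with endpoints linearly interpolated between the two concentrations bracketing the appropriate inhibition level. GI50 = concentration required for 50% inhibition of growth. TGI is the concentration that stops growth completely.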

Assays:
Experiment in all cases: growth of human tumour cells (NCI), 48 h
RXF 393 renal = system: RXF 393 renal
A549 NSCLC = system: A549 NSCLC
UO-31 renal = system: UO-31 renal
HCT-15 colon = system: HCT-15 colon
MDA-MB-435 = system: MDA-MB-435
SK-OV-3 ovarian = system: SK-OV-3 ovarian
RPMI-8226 leukemia = system: RPMI-8226 leukemia
COLO 205 colon = system: COLO 205 colon
KM12 colon = system: KM12 colon
MCF7 breast = system: MCF7 breast

Structure (SMILES)	GI50 (RXF 393 renal) [µM]	TGI (RXF 393 renal) [µM]	GI50 (A549 NSCLC) [µM]	TGI (A549 NSCLC) [µM]	GI50 (UO-31 renal) [µM]	TGI (UO-31 renal) [µM]	GI50 (HCT-15 colon) [µM]	TGI (HCT-15 colon) [µM]	GI50 (MDA-MB-435) [µM]	TGI (MDA-MB-435) [µM]	GI50 (SK-OV-3 ovarian) [µM]	TGI (SK-OV-3 ovarian) [µM]	TGI (RPMI-8226 leukemia) [µM]	TGI (COLO 205 colon) [µM]	TGI (KM12 colon) [µM]	GI50 (MCF7 breast) [µM]	TGI (MCF7 breast) [µM]	GI50 (RPMI-8226 leukemia) [µM]	GI50 (COLO 205 colon) [µM]	GI50 (KM12 colon) [µM]
Cn1cc(-c2csc(-c3cn(CCCCN4CCCCC4)c4ccccc34)n2)c2cccnc21	1.48	2.99	1.79	3.37	1.51	2.95	1.53	2.9	1.13	2.36	1.77	3.21	–	–	–	–	–	–	–	–
COC(=O)/C([Se]c1c(C)cc(C)cc1C)=C(/[Se]c1c(C)cc(C)cc1C)C(=O)OC	–	> 100	–	> 100	–	> 100	–	> 100	–	–	–	> 100	> 100	> 100	> 100	–	–	–	–	–
CC(C)(C)c1ccc2c(c1)S(=O)(=O)Nc1ccc(Cl)cc1NS(=O)(=O)c1cc(C(C)(C)C)ccc1OCCOCCOCCO2	–	79.1	–	> 100	–	> 100	–	> 100	–	–	–	86.3	–	> 100	> 100	–	–	–	–	–
ClCCN(CCCl)c1ccc(CNc2ccccc2)cc1	–	–	4.36	> 100	4.86	42.3	10.4	> 100	12	> 100	12	> 100	69.4	> 100	> 100	4.19	> 100	12.9	20.8	24.7
CCOP(=O)(OCC)C(C(=O)OC)C(=O)C(=O)Nc1ccc(Cl)cc1Cl (stereo not drawn)	–	> 100	–	> 100	–	> 100	–	> 100	–	–	–	> 100	> 100	> 100	> 100	–	–	–	–	–
NC(=O)C(=O)CC(=O)c1ccccc1NC1=CC(=O)C(=O)c2ccccc21	–	> 100	–	> 100	–	> 100	–	> 100	–	–	–	> 100	> 100	> 100	> 100	–	–	–	–	–
N#CCCN1C/C(=C/c2ccc(Br)cc2)C(=O)/C(=C/c2ccc(Br)cc2)C1	1.55	3.04	2.38	26.3	1.47	2.92	1.07	2.9	2.24	6.83	2.93	8.1	> 100	2.97	–	0.764	10.4	0.262	1.57	–
CC(C)=C1CCC(CN(C)C)C1=O (stereo not drawn)	–	33.5	–	> 100	–	> 100	–	30.8	–	–	–	–	–	63.4	> 100	–	–	–	–	–
O=C(N/C(=C\c1ccc([N+](=O)[O-])cc1)c1nc2ccccc2[nH]1)c1ccccc1	–	> 100	–	> 100	–	> 100	–	> 100	–	–	–	–	> 100	> 100	> 100	–	–	–	–	–
O=C(Cc1nc2c3c(ccc2[nH]c1=O)C(=O)c1ccccc1C3=O)C(=O)Nc1ccccc1[N+](=O)[O-]	–	–	–	> 100	–	> 100	–	–	–	–	–	> 100	41.1	33.5	43	–	–	–	–	–
